In the assay the target is T1, human FXR (NR1H4) (Homo sapiens, UniProt Q96RI1).
T1 construct: host or cells: CHO (Chinese hamster ovary) reporter cells
T1 sequence (Q96RI1 1-486): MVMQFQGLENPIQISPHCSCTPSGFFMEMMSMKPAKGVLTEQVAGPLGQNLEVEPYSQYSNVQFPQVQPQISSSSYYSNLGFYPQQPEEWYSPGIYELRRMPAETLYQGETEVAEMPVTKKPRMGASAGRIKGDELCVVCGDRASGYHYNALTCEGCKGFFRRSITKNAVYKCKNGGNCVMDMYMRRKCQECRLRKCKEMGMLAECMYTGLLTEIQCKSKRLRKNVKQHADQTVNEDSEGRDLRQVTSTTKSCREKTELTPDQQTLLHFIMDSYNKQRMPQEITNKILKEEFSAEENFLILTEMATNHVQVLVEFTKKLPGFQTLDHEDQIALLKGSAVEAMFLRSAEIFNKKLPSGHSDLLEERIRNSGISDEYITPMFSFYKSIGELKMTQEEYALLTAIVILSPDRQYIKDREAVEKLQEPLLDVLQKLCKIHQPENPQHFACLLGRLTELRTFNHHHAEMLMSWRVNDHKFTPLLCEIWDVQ
The assay is described as follows: Human FXR (NR1H4) Assay (Gal4 promoter driven luciferase reporter, CHO cells). Format: cell-based. From the text:
Assays Human FXR (NR1H4) Assay
Determination of a ligand mediated Gal4 promoter driven transactivation to quantify ligand binding mediated activation of FXR. FXR Reporter Assay kit purchased from Indigo Bioscience (Catalogue number: IB00601) to determine the potency and efficacy of compound developed by Enanta that can induce FXR activation. The principle application of this reporter assay system is to quantify functional activity of human FXR. The assay utilizes non-human mammalian cells, CHO (Chinese hamster ovary) cells engineered to express human NR1H4 protein (referred to as FXR). Reporter cells also incorporate the cDNA encoding beetle luciferase which catalyzes the substrates and yields photon emission. Luminescence intensity of the reaction is quantified using a plate-reading luminometer, Envision. Reporter Cells include the luciferase reporter gene functionally linked to an FXR responsive promoter. Thus, quantifying changes in luciferase expression in the treated reporter cells provides a sensitive surrogate measure of the changes in FXR activity. […] The assay is according to the manufacturer's instructions. In brief, the assay was performed in white, 96 well plates using final volume of 100 ul containing cells with different doses of compounds. Retrieve Reporter Cells from −80° C. storage. Perform a rapid thaw of the frozen cells by transferring a 10 ml volume of 37° C. cell recovery medium into the tube of frozen cells. Recap the tube of Reporter Cells and immediately place it in a 37° C. water bath for 5-10 minutes. Retrieve the tube of Reporter Cell Suspension from the water bath. Sanitize the outside surface of the tube with a 70% alcohol swab, and then transfer it into the cell culture hood. Dispense 90 μl of cell suspension into each well of the 96-well Assay Plate. Transfer the plate into 37° C. incubator, allowing the cells adherent to the bottom of the well. Dilute compounds in Dilution Plate (DP), and administrate to cells at Assay Plate (AP). DMSO content of the samples was kept at 0.2%. Cells were incubated for additional 22 hours before luciferase activities were measured. Thirty minutes before intending to quantify FXR activity, remove Detection Substrate and Detection Buffer from the refrigerator and place them in a low-light area so that they may equilibrate to room temperature. Remove the plate's lid and discard all media contents by ejecting it into an appropriate waste container. Gently tap the inverted plate onto a clean absorbent paper towel to remove residual droplets. Cells will remain tightly adhered to well bottoms. Add 100 μl of luciferase detection reagent to each well of the assay plate. Allow the assay plate to rest at room temperature for at least 5 minutes following the addition of LDR. Set the instrument (Envision) to perform a single 5 second “plate shake” prior to reading the first assay well. Read time may be 0.5 second (500 mSec) per well.
(In a reporter assay the amount or activity of a reporter protein is the signal.)

The mark [1] stands for this setting: efficacy normalized to CDCA set as 100%.

The term EC50 denotes the concentration at which the effect is half-maximal.

Where two headings read alike, the source gives them in different places.

`CC[C@H]1[C@@H](O)[C@@H]2[C@H](CC[C@]3(C)[C@@H]([C@H](C)CCS(N)(=O)=O)CC[C@@H]23)[C@@]2(C)CC[C@@H](O)C[C@@H]12` [Example 13]: the EC50 was in the range of 1 to 10 µM. In addition, the “Efficacy (%)” value under setting [1] is 118%.

The compound `CC[C@H]1[C@@H](O)[C@@H]2[C@H](CC[C@]3(C)[C@@H]([C@H](C)CCS(=O)(=O)NC(C)=O)CC[C@@H]23)[C@@]2(C)CC[C@@H](O)C[C@@H]12` [Example 21] registered an EC50 of 1 to 10 µM. The “Efficacy (%)” value under setting [1] worked out at 74%. For `CC[C@H]1[C@@H](O)[C@@H]2[C@H](CC[C@]3(C)[C@@H]([C@H](C)CCS(=O)(=O)NC(=O)c4ccccc4)CC[C@@H]23)[C@@]2(C)CC[C@@H](O)C[C@@H]12` [Example 22], in that order: 1 to 10 µM and 249%. For `CC[C@H]1[C@@H](O)[C@@H]2[C@H](CC[C@]3(C)[C@@H]([C@H](C)CCC(=O)N(O)Cc4ccccc4)CC[C@@H]23)[C@@]2(C)CC[C@@H](O)C[C@@H]12` [Example 4], in that order: 1 to 10 µM and 270%.

For `CC[C@H]1[C@@H](O)[C@@H]2[C@H](CC[C@]3(C)[C@@H]([C@H](C)CCCc4cc(F)c(O)c(F)c4)CC[C@@H]23)[C@@]2(C)CC[C@@H](O)C[C@@H]12` [Example 9], the concentration giving a half-maximal response (EC50) lay within 1 to 10 µM. The “Efficacy (%)” value under setting [1] worked out at 271%. As for `CC[C@H]1[C@@H](O)[C@@H]2[C@H](CC[C@]3(C)[C@@H]([C@H](C)CCS(=O)(=O)[O-])CC[C@@H]23)[C@@]2(C)CC[C@@H](O)C[C@@H]12.[Na+]` [Example 11], the “Efficacy (%)” value came out at 1%. In turn, `CC[C@H]1[C@@H](O)[C@@H]2[C@H](CC[C@]3(C)[C@@H]([C@H](C)CCCCS(N)(=O)=O)CC[C@@H]23)[C@@]2(C)CC[C@@H](O)C[C@@H]12` [Example 15] came in with a concentration giving a half-maximal response (EC50) of 0.1 to 1 µM. For the same compound, under setting [1], the “Efficacy (%)” value worked out at 195%. For `CC[C@H]1[C@@H](O)[C@@H]2[C@H](CC[C@]3(C)[C@@H]([C@H](C)CCS(=O)(=O)N(Cc4ccc(OC)cc4)Cc4ccc(OC)cc4)CC[C@@H]23)[C@@]2(C)CC[C@@H](O)C[C@@H]12` [Example 12], in that order: 1 to 10 µM and 1%. For `CC[C@H]1[C@@H](O)[C@@H]2[C@H](CC[C@]3(C)[C@@H]([C@H](C)/C=C/S(N)(=O)=O)CC[C@@H]23)[C@@]2(C)CC[C@@H](O)C[C@@H]12` [Example 19], in that order: 1 to 10 µM and 3%.

`CC[C@H]1[C@@H](O)[C@@H]2[C@H](CC[C@]3(C)[C@@H]([C@H](C)CCCS(=O)(=O)[O-])CC[C@@H]23)[C@@]2(C)CC[C@@H](O)C[C@@H]12.[Na+]` [Example 10]: the EC50 lay within 1 to 10 µM. The “Efficacy (%)” value under setting [1] is 4%. For `CC[C@H]1[C@@H](O)[C@@H]2[C@H](CC[C@]3(C)[C@@H]([C@H](C)CCOP(=O)(O)c4ccccc4)CC[C@@H]23)[C@@]2(C)CC[C@@H](O)C[C@@H]12` [Example 24], in that order: 1 to 10 µM and 75%.

Turning to `CC[C@H]1[C@@H](O)[C@@H]2[C@H](CC[C@]3(C)[C@@H]([C@H](C)CC=CCS(N)(=O)=O)CC[C@@H]23)[C@@]2(C)CC[C@@H](O)C[C@@H]12` [Example 14], the EC50 is 0.1 to 1 µM. Under setting [1], the “Efficacy (%)” value came to 167%. Regarding `CCOP(=O)(CC[C@@H](C)[C@H]1CC[C@H]2[C@@H]3[C@H](O)[C@H](CC)[C@@H]4C[C@H](O)CC[C@]4(C)[C@H]3CC[C@]12C)c1ccccc1` (stereo partly drawn) [Example 29], the EC50 fell in the range of 1 to 10 µM and the “Efficacy (%)” value came to 49. %. `CC(C)N(O)C(=O)CC[C@@H](C)[C@H]1CC[C@H]2[C@@H]3[C@H](O)C[C@@H]4C[C@H](O)CC[C@]4(C)[C@H]3CC[C@]12C` [Example 2] had an EC50 above 10 µM. In addition, under setting [1], the “Efficacy (%)” value is recorded as 13%. Regarding `CC[C@H]1[C@@H](O)[C@@H]2[C@H](CC[C@]3(C)[C@@H]([C@H](C)CCCOP(=O)(Oc4ccccc4)c4ccccc4)CC[C@@H]23)[C@@]2(C)CC[C@@H](O)C[C@@H]12` (stereo partly drawn) [Example 26], the 50% effective concentration (EC50) lay in the range of 1 to 10 µM and the “Efficacy (%)” value was 129%. Compound `C[C@H](CCC(=O)N(O)C1CCCCC1)[C@H]1CC[C@H]2[C@@H]3[C@H](O)C[C@@H]4C[C@H](O)CC[C@]4(C)[C@H]3CC[C@]12C` [Example 3] had a half-maximal effective concentration (EC50) above 10 µM. Moreover, the “Efficacy (%)” value under setting [1] turned out to be 2%. On the same counts, the results for `CC[C@H]1[C@@H](O)[C@@H]2[C@H](CC[C@]3(C)[C@@H]([C@H](C)CC=CS(N)(=O)=O)CC[C@@H]23)[C@@]2(C)CC[C@@H](O)C[C@@H]12` [Example 17] are 0.1 to 1 µM and 147%. On the same counts, the results for `CC[C@H]1[C@@H](O)[C@@H]2[C@H](CC[C@]3(C)[C@@H]([C@H](C)CCS(=O)(=O)NCc4ccc(OC)cc4)CC[C@@H]23)[C@@]2(C)CC[C@@H](O)C[C@@H]12` [Example 20] are above 10 µM and 60%. Take `CCOP(=O)(CCC[C@@H](C)[C@H]1CC[C@H]2[C@@H]3[C@H](O)[C@H](CC)[C@@H]4C[C@H](O)CC[C@]4(C)[C@H]3CC[C@]12C)c1ccccc1` (stereo partly drawn) [Example 28]: the EC50 was 0.1 to 1 µM and the “Efficacy (%)” value was determined as 265%. Compound `CC[C@H]1[C@@H](O)[C@@H]2[C@H](CC[C@]3(C)[C@@H]([C@H](C)CCCS(N)(=O)=O)CC[C@@H]23)[C@@]2(C)CC[C@@H](O)C[C@@H]12` [Example 23] gave an EC50 of 1 to 10 µM. Besides, the “Efficacy (%)” value under setting [1] turned out to be 202%.

Compound `CC[C@H]1[C@@H](O)[C@@H]2[C@H](CC[C@]3(C)[C@@H]([C@H](C)CCCCS(=O)(=O)N(C)Cc4ccccc4)CC[C@@H]23)[C@@]2(C)CC[C@@H](O)C[C@@H]12` [Example 16] came in with an EC50 of 1 to 10 µM. Also, the “Efficacy (%)” value under setting [1] was found to be 97%.

As for `CCOP(=O)(CCC[C@@H](C)[C@H]1CC[C@H]2[C@@H]3[C@H](O)[C@H](CC)[C@@H]4C[C@H](O)CC[C@]4(C)[C@H]3CC[C@]12C)OCC` [Example 27], the concentration giving a half-maximal response (EC50) lay in the range of 1 to 10 µM and the “Efficacy (%)” value came to 246%.

In turn, `CC[C@H]1[C@@H](O)[C@@H]2[C@H](CC[C@]3(C)[C@@H]([C@H](C)/C=C/S(=O)(=O)NCc4ccc(OC)cc4)CC[C@@H]23)[C@@]2(C)CC[C@@H](O)C[C@@H]12` [Example 18] gave an EC50 of 1 to 10 µM. Under setting [1], the “Efficacy (%)” value was 16%.
